Reference: patent US9856511B2, “Protease deubiquitinating inhibitor screening” (priority 2011, dated 2018)

What was measured:
[1] = tested on: Lewis Lung Carcinoma (LLC); assay: Lewis Lung Carcinoma (LLC) syngenic tumors in C57BL/6J mice; type: in vivo; conditions: 5 mg/kg i.p., day on/2 day off schedule; p=<0.01
Description: In order to investigate the effect of b-AP15 on tumor growth in vivo, the compound was administered to mice bearing either a human tumor or mouse xenografts. FaDu head and neck carcinoma were chosen as a SCID mouse xenograft both as a model for a p53mut tumor and since this model is suitable for studies using circulating cell death biomarkers (30). Significant inhibition of FaDu tumor growth was observed following daily treatment with b-AP15 (treated/control tumor volume, T/C=0.4, p=<0.001). Similarly b-AP15 (day on/2 day off schedule) inhibited tumor growth in C57BL/6J mice bearing lung carcinomas (T/C=0.16, p=<0.01). […] To examine whether b-AP15 promotes tumor cell death in vivo, plasma levels of cytokeratin-18 (CK18) were analyzed. […] To investigate the ability of b-AP15 to inhibit proteasome deubiquitination in vivo, accumulation of poly-ubiquitin conjugates was analyzed by means of antibodies specific for K48 linked polyubiquitin chains. Histological analysis of treated tumors confirmed the accumulation of poly-ubiquitin conjugates. […]
Animal experiments were conducted in full accordance with Swedish governmental statutory regulations on animal welfare under permission from local ethical committees. […] All mice were monitored and weighed daily. […] After injection, tumor growth was measured daily with calipers and the tumor volume calculated by the formula L=W^2=0.44. […]

[2] = tested on: cellular DUB activity (HCT-116 cells); assay: Cellular DUB activity, Ub-AMC cleavage in lysates of treated cells; type: cell-based; conditions: b-AP15 treated cells
Text: b-AP15 comprises an α-β dienone entity with two sterically accessible β carbons. A structurally similar pharmacophore has been earlier described to be comprised by a class of ubiquitin isopeptidase inhibitors (21). […] In the opinion of the present inventors the similarities in pharmacophore structure and the data showing that b-AP15 inhibits proteasome activity independent of the 20S CP indicate that b-AP15 represents a novel class of proteasome inhibitors that block the deubiquitinating activity of the 19S RP.
HTC-116 cells were treated for 3 h with b-AP15 (1 μM) (FIG. 10). Lysates treated with 10 mM N-ethylmaleimide (NEM) were included as a control for total DUB inhibition. DUB activity was determined from cell lysates by measuring cleavage of the fluorogenic substrate ubiquitin-7-amido-4-methylcoumarin (Ub-AMC).

19S RP = target: T1, 19S RP (Homo sapiens, UniProt P54578+Q9Y5K5); assay: De-ubiquitinase activity assay, purified 19S RP with ubiquitin-AMC; type: biochemical
T1 construct: purchased Boston Biochem E-366
Description: In vitro proteasome activity assays were performed in black 96-well microtiter plates using human 20S proteasome (Boston Biochem) in reaction buffer (25 mM Hepes, 0.5 mM EDTA, 0.03% SDS) with Suc-LLVY-AMC, Z-LLE-AMC or Boc-LRRAMC used as substrates for proteasome activity. De-ubiquitinase activity assays were performed with human 19S RP (Boston Biochem) with ubiquitin-AMC as substrate. For xenograft studies a 100-μl-cell suspension containing 1×10^6 FaDu head-neck or 2×10^5 Lewis Lung Carcinoma (LLC) cells were injected subcutaneously into the flank of SCID or C57BL/6J mice. Upon tumor take mice were randomized into control or treatment groups and administered with 5 mg kg^−1 b-AP15 or vehicle. In vivo levels of apoptosis and cell death were determined from the detection of caspase cleaved and total levels of cytokeratin-18 in plasma using M30 Apoptosense® and M65 ELISA®s assays (Peviva). […]
In vitro proteasome activity assays using 20S CP (2 nM) (Boston Biochem) were performed at 37° C. in 100-μl reaction buffer (25 mM Hepes, 0.5 mM EDTA, 0.03% SDS). […] Fluorescence was monitored using Wallac Multilabel counter or Tecan Infinite M1000 equipped with 360 nm excitation and 460 nm emission filters. […]
Dose response of b-AP15 (FIG. 11a): Purified 19S proteasomes (5 nM) were treated with indicated concentrations of b-AP15, and DUB activity was determined by detection of Ub-AMC cleavage. […]

C=CC(=O)N1C/C(=C\c2ccc([N+](=O)[O-])cc2)C(=O)/C(=C/c2ccc([N+](=O)[O-])cc2)C1 [b-AP15]
treated/control tumor volume, T/C [1]: 0.16 | cellular DUB activity (Ub-AMC cleavage) [2]: no reduction in Ub-AMC cleavage | effect of reduced glutathione on inhibition of 19S DUB activity (19S RP; b-AP15 10 μM mixed with GSH 2 mM, 19S 5 nM): did not reduce b-AP15 mediated inhibition | reversibility of inhibition of 19S DUB activity (19S RP; recovery of activity after 50-fold rapid dilution of enzyme/b-AP15 complex): reversible inhibitor
